Experimental data published in patent EP0387661A2, “New 3'-(4-morpholinyl)- and 3'-(2-methoxy-4-morpholinyl)-anthracycline derivatives” (priority 1989, dated 1990).
In brackets after ≈: the same amount, converted by molar mass.

Columns and labels:
LoVo/DX cells = assay: in vitro cytotoxicity (colony growth inhibition) against LoVo/DX cells; format: cell-based, human; conditions: for R.I. = Resistance Index = (IC50 LoVo/DX)/(IC50 LoVo): ratio of IC50 LoVo/DX to IC50 LoVo; for Cytotoxicity after 4h of treatment (IC50) LoVo/DX: concentration inhibiting by 50% colony growth, tested as hydrochlorides
Protocol: (§1) All compounds were tested as their hydrochlorides.

P388/DX Johnson = assay: in vivo; conditions: for %T/C (Median survival time of treated mice/median survival time of controls x 100): P388/DX Johnson (iv, iv+1), at optimal dose
Protocol: (§2) The biological activity of the compounds according to the invention was tested in vitro against LoVo (human colon adenocarcinoma) and LoVo/DX cells in comparison with doxorubicin. The compounds of the invention were also tested in vivo against P388 and P388/DX murine leukemia in comparison with doxorubicin. All compounds were tested as their hydrochlorides.

in vivo [1] = conditions: mouse, in vivo, iv
Protocol: as §2

[2] = test system: LoVo (human colon adenocarcinoma); assay: in vitro cytotoxicity (colony growth inhibition) against LoVo cells; format: cell-based; conditions: concentration inhibiting by 50% colony growth, tested as hydrochlorides
Protocol: as §1

P388 = assay: in vivo; conditions: for %T/C (Median survival time of treated mice/median survival time of controls x 100): P388 (iv, iv+1), at optimal dose
Protocol: as §2

in vivo [3] = conditions: mouse, in vivo, iv; remark: listed apart in the source
Protocol: as §2

Row | SMILES | R.I. = Resistance Index = (IC50 LoVo/DX)/(IC50 LoVo) (LoVo/DX cells) | %T/C (Median survival time of treated mice/median survival time of controls x 100) (P388/DX Johnson) | MTD (in vivo [1]) | IC50 ([2]; Homo sapiens, LoVo, 4h of treatment, read-out: Cytotoxicity after 4h of treatment (IC50) LoVo) | %T/C (Median survival time of treated mice/median survival time of controls x 100) (P388) | MTD (in vivo [3]) | Cytotoxicity after 4h of treatment (IC50) LoVo/DX (LoVo/DX cells) | Cytotoxicity after 4h of treatment (IC50) LoVo [2] | O.D. (Optimal dose: maximum tolerated dose (LD10)) (P388/DX Johnson; P388/DX Johnson (iv, iv+1): tumor implanted intravenously, treatment begins one day after implantation) | O.D. (Optimal dose: maximum tolerated dose (LD10)) (P388; P388 (iv, iv+1): tumor implanted intravenously, treatment begins one day after implantation)
1 | COc1cccc2c1C(=O)c1c(O)c3c(c(O)c1C2=O)C[C@@](O)(C(=O)CO)C[C@@H]3O[C@H]1C[C@H](N)[C@H](O)[C@H](C)O1 [Doxorubicin, reference compound] | 36 | 100% | 13 mg/kg | 0.06 µg/mL (≈ 0.11 µM) | 250% | 13 mg/kg | – | – | – | –
2 | C[C@@H]1O[C@@H](O[C@H]2C[C@](O)(C(=O)CO)Cc3c2cc2c(c3O)C(=O)c3cccc(O)c3C2=O)C[C@H](N2CCOCC2)[C@@H]1O [Ia, 4-demethyl-6-deoxy-3′-deamino-3′-(4-morpholinyl) doxorubicin] | 4.7 | 183% | – | – | 222% | – | 0.1654 µg/mL | 0.0355 µg/mL | – | –
3 | CC(=O)[C@]1(O)Cc2c(O)c3c(c(O)c2[C@@H](O[C@H]2C[C@H](N4CCOCC4)[C@H](O)[C@H](C)O2)C1)C(=O)c1c(N)cccc1C3=O [Ib, 4-demethoxy-4-amino-3′-deamino-3′-(4-morpholinyl)-daunorubicin] | 2.1 | 167% | – | – | 156% | – | 0.0285 µg/mL | 0.0137 µg/mL | – | –
4 | CC(=O)[C@]1(O)Cc2c(O)c3c(c(O)c2[C@@H](O[C@H]2C[C@H](N4CCOCC4)[C@@H](O)[C@H](C)O2)C1)C(=O)c1c(N)cccc1C3=O [Ic, 4-demethoxy-4-amino-3′-deamino-3′-(4-morpholinyl)-4′-epi-daunorubicin] | 1.3 | 195% | 20 mg/kg | – | – | – | 0.0485 µg/mL | 0.036 µg/mL | – | –
5 | CC(=O)[C@]1(O)Cc2c(O)c3c(c(O)c2[C@@H](O[C@H]2C[C@H](N4CCOCC4)[C@@H](O)[C@H](C)O2)C1)C(=O)c1c(F)cccc1C3=O [Ie, 4-demethoxy-4-fluoro-3′-deamino-3′-(4-morpholinyl)-4′-epi-daunorubicin] | 3.6 | 244% | 6.3 mg/kg | – | 411% | 6.3 mg/kg | 0.168 µg/mL | 0.047 µg/mL | – | –
6 | COC1CN(C2CC(OC3CC(O)(C(C)=O)Cc4c(O)c5c(c(O)c43)C(=O)c3ccccc3C5=O)OC(C)C2O)CCO1 (centres unmarked) [Il, 4-demethoxy-3′-deamino-3′-(2-methoxy-4-morpholinyl)-daunorubicin] | 11.5 | 161% | – | – | 133% | – | 0.0023 µg/mL | 0.0002 µg/mL | 0.36 mg/kg | 0.14 mg/kg
